Blank lines part the entries; values can stand above or below the compound they belong to.
What was measured:
[1] = ref Anderson et al., 2011; cited from earlier work
Chk2 = details: ref Jobson et al., cited from earlier work
recombinant human Chk2 = recombinant human Chk2 (Homo sapiens, UniProt O96017); experiment: IMAP fluorescence polarization kinase inhibition assay, Chk2; format: biochemical; details: read-out: IC50 Chk2 Mean ±SD (n=3–4), 60 minutes at room temperature
Chk1 = molecular target: T1, Chk1 (Homo sapiens, UniProt O14757); experiment: IMAP fluorescence polarization kinase inhibition assay, Chk1; format: biochemical; details: for IC50: read-out: IC50 Chk1, IMAP assay, 60 minutes at room temperature
T1 sequence (O14757 1-476): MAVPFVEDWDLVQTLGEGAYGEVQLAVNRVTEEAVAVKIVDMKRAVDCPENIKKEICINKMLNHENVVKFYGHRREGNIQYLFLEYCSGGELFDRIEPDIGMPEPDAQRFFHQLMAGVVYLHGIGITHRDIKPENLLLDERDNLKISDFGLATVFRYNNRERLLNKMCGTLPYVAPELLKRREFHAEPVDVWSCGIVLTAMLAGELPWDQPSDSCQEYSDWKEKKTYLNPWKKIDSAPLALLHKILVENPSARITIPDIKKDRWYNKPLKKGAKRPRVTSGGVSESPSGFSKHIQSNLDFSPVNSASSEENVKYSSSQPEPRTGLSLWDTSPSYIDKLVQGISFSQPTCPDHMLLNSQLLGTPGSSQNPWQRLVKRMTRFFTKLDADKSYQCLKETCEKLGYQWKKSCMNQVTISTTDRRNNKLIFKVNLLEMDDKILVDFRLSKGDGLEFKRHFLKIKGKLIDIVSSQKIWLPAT

RSK2 = RSK2 (Homo sapiens, UniProt P51812); experiment: IMAP fluorescence polarization kinase inhibition assay, RSK2; format: biochemical; details: for IC50: read-out: IC50 RSK2, IMAP assay, 60 minutes at room temperature
Sequence of RSK2 (P51812 68-327 limits assumed): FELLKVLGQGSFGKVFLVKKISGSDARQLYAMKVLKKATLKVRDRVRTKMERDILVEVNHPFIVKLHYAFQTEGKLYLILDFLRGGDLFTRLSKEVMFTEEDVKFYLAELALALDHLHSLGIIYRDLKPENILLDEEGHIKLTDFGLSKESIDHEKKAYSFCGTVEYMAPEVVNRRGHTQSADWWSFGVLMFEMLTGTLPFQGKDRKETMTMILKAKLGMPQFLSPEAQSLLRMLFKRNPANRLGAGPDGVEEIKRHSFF

[2] = positive control on each screening plate

Sequence of recombinant human Chk2 (O96017 whole entry): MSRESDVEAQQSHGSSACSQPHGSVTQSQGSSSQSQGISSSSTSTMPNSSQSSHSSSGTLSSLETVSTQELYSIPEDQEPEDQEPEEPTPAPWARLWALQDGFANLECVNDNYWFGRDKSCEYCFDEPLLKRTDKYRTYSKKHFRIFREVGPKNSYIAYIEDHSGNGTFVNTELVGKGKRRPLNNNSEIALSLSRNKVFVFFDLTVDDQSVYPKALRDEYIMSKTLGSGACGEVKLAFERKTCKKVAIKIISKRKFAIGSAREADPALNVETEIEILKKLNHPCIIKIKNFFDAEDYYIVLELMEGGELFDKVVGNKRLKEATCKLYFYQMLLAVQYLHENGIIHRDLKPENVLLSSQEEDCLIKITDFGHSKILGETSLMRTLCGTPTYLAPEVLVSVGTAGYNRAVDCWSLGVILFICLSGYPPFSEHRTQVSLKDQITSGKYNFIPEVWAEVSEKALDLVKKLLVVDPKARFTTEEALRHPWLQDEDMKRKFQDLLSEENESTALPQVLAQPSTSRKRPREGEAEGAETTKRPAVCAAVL

SMILES: COc1cc2nc(-c3cc(F)ccc3O)nc(N[C@@H]3CNC[C@H]3C(C)(C)O)c2cc1OC [CCT241533]
- Potentiation of cytotoxicity of PARP inhibitors [1]: potentiate the cytotoxicity of PARP inhibitors

SMILES: CC(=NNC(=N)N)c1ccc(NC(=O)Nc2ccc(C(C)=NNC(=N)N)cc2)cc1 [NSC 109555, 4,4'-Diacetyldiphenylurea-bis(guanylhydrazone)]
- Activity in cellular assays (Chk2; 2007): inactive

- IC50 (recombinant human Chk2): 69.6 ± 40.2 nM
- IC50 (Chk1): > 100 µM
- IC50 (RSK2): > 100 µM
SMILES: OCC=CCO [PV976]

SMILES: CN[C@@H]1C[C@H]2O[C@@](C)([C@@H]1OC)n1c3ccccc3c3c4c(c5c6ccccc6n2c5c31)C(=O)NC4 [staurosporine, reference compound]
- Inhibition of Chk1 (positive control) (Chk1; [2]): inhibits
- Inhibition of RSK2 (positive control) (RSK2; [2]): inhibits

- IC50 (Chk1): 66 µM
- IC50 (RSK2): > 100 µM
SMILES: C/C(=N\NC1=NCCN1)c1ccc(NC(=O)c2cc3cccc([N+](=O)[O-])c3[nH]2)cc1 [PV1115]

SMILES: N/C(=N/N=C/c1cccnc1)N[N+](=O)[O-] [PV1531]
- IC50 (recombinant human Chk2): 0.03 ± 0.03 nM
- IC50 (Chk1): 86 µM
- IC50 (RSK2): > 100 µM

SMILES: CC(=NNC(=N)N)c1ccc(NC(=O)c2cc3cccc([N+](=O)[O-])c3[nH]2)cc1 [PV1019, 7-nitro-1H-indole-2-carboxylic acid {4-[1-(guanidinohydrazone)-ethyl]-phenyl}-amide]
- Activity in cells against Chk2 (Chk2; 2009): active
